Experimental data taken from paper PMC11676817, “Antiproliferative and Morphological Analysis Triggered by Drugs Contained in the Medicines for Malaria Venture COVID-Box Against Toxoplasma gondii Tachyzoites” (Microorganisms, 2024).
Read-outs that look alike come from different tables or passages of the source.

Legend:
[1] = Rat, cited from earlier work; for Cmax: read-out: Plasma concentration (Cmax)
in vitro = conditions: human
[2] = test system: Toxoplasma gondii tachyzoites of the RH strain; assay: microbe, parasite or virus in culture; conditions: 168 h; for inhibition at 1 µM: read-out: Inhibition of tachyzoite proliferation
T. gondii tachyzoites [3] = assay: Transmission electron microscopy of treated tachyzoites; assay type: cell-based, Toxoplasma gondii; conditions: 48 h
Procedure: NHDF cultures infected with T. gondii were treated with compounds and fixed with 2.5% glutaraldehyde (EM Grade—Ted Pella Inc., Redding, CA, USA) in 0.1 M sodium cacodylate buffer pH 7.4 (Ted Pella Inc.). Cells were post-fixed with 1% osmium tetroxide, 1.25% potassium ferrocyanide, and 5 mM CaCl2, in 0.1 M sodium cacodylate buffer (pH 7.4). The sample fixation and processing for microscopy were performed as previously described. Samples were dehydrated in alcohol solutions of increasing concentrations (35–100%) and embedded in epoxy resin (Polybed 812, Polysciences). Ultrathin sections were collected in copper grids 300 mesh (Ted Pella Inc.), stained with uranyl acetate and lead citrate, and then observed in a Fei TecNai G2 120 kV Spirit Electron Microscope (FEI Company, Eindhoven, The Netherlands).

[4] = test system: Toxoplasma gondii tachyzoites of the RH strain; assay: microbe, parasite or virus in culture; assay type: cell-based; conditions: Toxoplasma gondii; for inhibition at 0.0625 µM / activity at 0.0625 µM: 62.5 nM; for activity at 0.125 µM: 125 nM; for activity at […]: 250 nM
T. gondii tachyzoites [5] = assay: Immunofluorescence microscopy of treated tachyzoites (aberrant cell division, rhoptry morphology); conditions: 24 h; for PVs with parasites with aberrant division: IMC1 and DAPI labeling
Procedure: Rabbit anti-IMC1 (1:1000) and anti-ARO (1:1000) (kindly provided by Dr. Dominique Soldati, Universite de Geneve, Switzerland) were used to label the mother cell and daughter cell pellicles throughout the endodyogeny process and rhoptries, respectively. Mouse anti-SAG1 (1:200; kindly donated by Dr. Tiago Mineo, Universidade Federal de Uberlândia) was used to label the parasite plasma membrane. DAPI (2 µg/mL; Sigma-Aldrich, St. Louis, MO, USA) was used to label the DNA. […] After labeling with antibodies, the coverslips were mounted onto slides using Prolong gold (Life Technologies), and samples were examined on a Zeiss Axio Observer Z1 microscope (Baden-Württemberg, Germany) or Olympus BX60 microscope (Shinjuku City, Tokyo, Japan).

[6] = test system: Toxoplasma gondii tachyzoites of the RH strain; conditions: for IC50: 7 days of treatment
[7] = Cytotoxicity assay in NHDF cells (MTS); conditions: human
[8] = cited from earlier work
T. gondii tachyzoites [9] = conditions: cited from earlier work
[10] = Mice/Mouse; ref Table S3 supplementary refs 6, 16, 24, 27, 33; cited from earlier work
[11] = published in vivo studies; ref Table S3; cited from earlier work
[12] = cited from earlier work; remark: listed apart in the source
[13] = ref Table S3 supplementary refs 3, 10, 12, 21
[14] = ref Table S3 supplementary refs 3, 10, 12, 28, 32
[15] = NHDF, read-out: IC50 (μM) in Tachyzoites, RH strain in NHDF cells, plaque assay, 7 days of treatment
[16] = read-out: IC50 against T. gondii proliferation, RH strain, 7 days of treatment
[17] = 31.2 nM, 24 h of treatment, read-out: Proliferation index (%)
[18] = 24 h, read-out: Inhibition of parasite proliferation
[19] = 24 h of treatment, read-out: Proliferation index (%)
[20] = read-out: IC50 (μM) in Tachyzoites, RH strain in NHDF cells, plaque assay
[21] = read-out: IC50 against T. gondii proliferation, RH strain
[22] = Human, ref Table S3 supplementary refs 1, 4, 8, 11, 13, 15, 17, 18, 19, 23, 31
[23] = read-out: Plasma concentration (Cmax), Human, ref Table S3 supplementary refs 1, 4, 8, 11, 13, 15, 17, 18, 19, 23
[24] = read-out: Plasma concentration (Cmax), Human, ref Table S3 supplementary refs 20, 22, 25, 31

## COc1cc2c3cc1Oc1c(OC)c(OC)cc4c1[C@@H](Cc1ccc(O)c(c1)Oc1ccc(cc1)C[C@@H]3N(C)CC2)N(C)CC4 [Berbamine]
[1]; [13]
  Plasma concentration (Cmax): 32.6 ng/mL
[1]; [14]
  Cmax: 53.6 nM
In vitro
  CC50 at 7 days: 4610 ± 7520 nM
  selectivity ratio at 7 days: 15
[2]; [15]
  IC50: 0.31 ± 0.03 µM

## CC(C)C[C@H](NC(=O)[C@H](Cc1ccccc1)NC(=O)c1cnccn1)B(O)O [Bortezomib]
T. gondii tachyzoites [3]; 62.5 nM
  Effect on T. gondii ultrastructure (TEM): affected the parasite cell division
In vitro
  selectivity ratio at 7 days: 24
[2]; [16]
  IC50: ≤ 0.03 µM
[4]; 31.2 nM, 24 h, read-out: Inhibition of parasite proliferation
  inhibition at 0.0312 µM: 75 to 80%
[4]; [17]
  activity at 0.0312 µM: 20.9%
[4]; [18]
  inhibition at 0.0625 µM: > 90%
[4]; [19]
  activity at 0.0625 µM: 9.23%
T. gondii tachyzoites [5]; 31.2 nM
  PVs with parasites with aberrant division: 23.6%
T. gondii tachyzoites [5]; 62.5 nM
  PVs with parasites with aberrant division: 48.0%
[6]; [20]
  IC50: 0.03 µM
[6]; [21]
  IC50: < 0.03 µM
[7]
  CC50 at 7 days: 720 ± 240 nM
[8]; human, in vivo
  Cmax: 148 nM
  Plasma concentration (Cmax): 56.7 ng/mL
T. gondii tachyzoites [9]; 72 h of treatment, ref Cajazeiro et al. (2022) [24], read-out: EC50 against T. gondii
  EC50: 220 nM
T. gondii tachyzoites [9]; 72 h of treatment, ref [34], read-out: IC50 in tachyzoites of T. gondii
  IC50: 100 nM

## C[C@@H]1C[C@@H]([C@H](O)CC2CC(=O)NC(=O)C2)C(=O)[C@@H](C)C1 [Cycloheximide]
T. gondii tachyzoites [3]; 62.5 nM
  Effect on T. gondii ultrastructure (TEM): increased endoplasmic reticulum area
T. gondii tachyzoites [3]; 125 nM
  Effect on T. gondii ultrastructure (TEM): vacuoles containing parasites were completely lysed
[1]; [13]
  Plasma concentration (Cmax): 43.1 ng/mL
[1]; [14]
  Cmax: 153 nM
In vitro
  CC50 at 7 days: 6080 ± 4630 nM
[2]; [16]
  IC50: ≤ 0.03 µM
[4]; [17]
  activity at 0.0312 µM: 47.9%
[4]; [18]
  inhibition at 0.0625 µM: 75 to 80%
[4]; [19]
  activity at 0.0625 µM: 30.5%
  activity at 0.125 µM: 33%
[6]; [20]
  IC50: 0.02 µM
[6]; [21]
  IC50: < 0.03 µM

## C[C@H]1O[C@@H](O[C@H]2[C@@H](O)C[C@H](O[C@H]3[C@@H](O)C[C@H](O[C@H]4CC[C@@]5(C)[C@H](CC[C@@H]6[C@@H]5C[C@@H](O)[C@]5(C)[C@@H](C7=CC(=O)OC7)CC[C@]65O)C4)O[C@@H]3C)O[C@@H]2C)C[C@H](O)[C@@H]1O [Digoxin]
In vitro
  CC50 at 7 days: 340 ± 320 nM
[2]; [16]
  IC50: ≤ 0.03 µM
[2]; [15]
  IC50: 0.03 ± 0.01 µM

## CC[C@H]1CN2CCc3cc(OC)c(OC)cc3[C@@H]2C[C@@H]1C[C@H]1NCCc2cc(OC)c(OC)cc21 [Emetine]
In vitro
  CC50 at 7 days: 1020 ± 190 nM
[2]; [16]
  IC50: < 0.1 µM
[2]; [15]
  IC50: 0.05 ± 0.01 µM
[8]; [22]
  Plasma concentration (Cmax): 9.6 ng/mL
[8]; [23]
  Cmax: 20 nM

## CC(C)(C)Cn1c(N)nc2ccc(-c3[nH]c(C(C)(C)C)nc3-c3ccc(F)cc3)nc21 [LY2228820]
[2]; [16]
  IC50: < 0.1 µM
[2]; [15]
  IC50: 0.04 µM

## COC(=O)C1=C(C)NC(C)=C(C(=O)OCCN2CCN(C(c3ccccc3)c3ccccc3)CC2)C1c1cccc([N+](=O)[O-])c1 (centres unmarked) [Manidipine]
[2]; [15]
  IC50: 0.74 ± 0.09 µM
[8]; human, in vivo
  Cmax: 9 nM
  Plasma concentration (Cmax): 5.53 ng/mL

## COc1cc(NC(=O)Nc2cccc(CNC(=O)O[C@H]3CCOC3)c2)ccc1-c1cnco1 [Merimepodib]
[2]; [15]
  IC50: < 0.5 µM
[4]; 1.5 µM, 24 h, read-out: Inhibition of parasite proliferation
  inhibition at […]: 55 to 60%
[4]; 2.0 µM, 24 h, read-out: Inhibition of parasite proliferation
  inhibition at 2 µM: 55 to 60%
[6]; [20]
  IC50: 0.48 ± 0.08 µM
[8]; [22]
  Plasma concentration (Cmax): 1590 ng/mL
[8]; [23]
  Cmax: 5510 nM
T. gondii tachyzoites [9]; 72 h of treatment, ref [23], read-out: IC50 for T. gondii tachyzoites
  IC50: 780 nM

## COc1c(C)c2c(c(O)c1C/C=C(\C)CCC(=O)O)C(=O)OC2 [Mycophenolic acid]
T. gondii tachyzoites [3]; 250 nM
  Effect on T. gondii ultrastructure (TEM): affected the tachyzoites’ division process
In vitro
  selectivity ratio at 7 days: 340
[2]; [16]
  IC50: < 0.1 µM
[2]; [15]
  IC50: 0.07 ± 0.01 µM
[4]; [19]
  activity at 0.125 µM: 61.3%
  activity at […]: 42%
[4]; 250 nM (0.25 µM), 24 h, read-out: Inhibition of parasite proliferation
  inhibition at […]: 55 to 60%
[7]
  CC50 at 7 days: 23800 ± 32000 nM
[8]; Human, ref Table S3 supplementary refs 20, 25
  Plasma concentration (Cmax): 24300 ng/mL
[8]; [24]
  Cmax: 75800 nM
T. gondii tachyzoites [9]; 24 h of treatment, ref [23], read-out: IC50 for T. gondii tachyzoites
  IC50: 211000 nM

## O=C(Nc1ccc([N+](=O)[O-])cc1Cl)c1cc(Cl)ccc1O [Niclosamide]
[1]; ref Table S3 supplementary refs 21, 29
  Cmax: 1080 nM
In vitro
  selectivity ratio at 7 days: 8
[2]; [15]
  IC50: 0.36 ± 0.02 µM
[7]
  CC50 at 7 days: 3050 ± 80 nM
[8]; Human, ref Table S3 supplementary ref 22
  Plasma concentration (Cmax): 1280 ng/mL
[8]; [24]
  Cmax: 3900 nM

## O=c1[nH]c2ccccc2n1C1CCN(CCCC(c2ccc(F)cc2)c2ccc(F)cc2)CC1 [Pimozide]
[2]; [15]
  IC50: 0.64 ± 0.15 µM

## Cc1ccc(C(=O)Nc2ccc(CN3CCN(C)CC3)c(C(F)(F)F)c2)cc1C#Cc1cnc2cccnn12 [Ponatinib]
[2]; [15]
  IC50: 0.33 ± 0.03 µM
[8]; [22]
  Plasma concentration (Cmax): 123 ng/mL
[8]; [23]
  Cmax: 231 nM

## CCc1nc(N)nc(N)c1-c1ccc(Cl)cc1 [Pyrimethamine]
[4]; [19]
  activity at 0.125 µM: 87.3%
  activity at […]: 56.6%
[4]; 500 nM, 24 h of treatment, read-out: Proliferation index (%)
  activity at 0.5 µM: 39.2%
[4]; 1000 nM, 24 h of treatment, read-out: Proliferation index (%)
  activity at 1 µM: 22%

## COc1ccc2cc1Oc1ccc(cc1)C[C@H]1c3cc(c(OC)cc3CCN1C)Oc1c(OC)c(OC)cc3c1[C@H](C2)N(C)CC3 [Tetrandrine]
[1]; ref Table S3 supplementary refs 28, 32
  Plasma concentration (Cmax): 237.10 ng/mL
[1]; [14]
  Cmax: 381 nM
In vitro
  CC50 at 7 days: 4770 ± 8250 nM
  selectivity ratio at 7 days: 14
[2]; [15]
  IC50: 0.35 ± 0.07 µM
[10]
  Does it cross the blood-brain barrier or is found in the brain?: Yes
[11]
  Brain availability: confirmed

## CCCCc1oc2ccccc2c1C(=O)c1cc(I)c(OCCN(CC)CC)c(I)c1 [amiodarone, Amiodarone]
[6]
  Cytotoxicity for the host cells during the initial screening: signs of cytotoxicity for the host cells

## C[C@H]1O[C@@H](O[C@H]2[C@@H](O)C[C@H](O[C@H]3[C@@H](O)C[C@H](O[C@H]4CC[C@@]5(C)[C@H](CC[C@@H]6[C@@H]5CC[C@]5(C)[C@@H](C7=CC(=O)OC7)CC[C@]65O)C4)O[C@@H]3C)O[C@@H]2C)C[C@H](O)[C@@H]1O [digitoxin, Digitoxin]
[2]
  inhibition at 1 µM: ≥ 70%

## COc1cccc2c1C(=O)c1c(O)c3c(c(O)c1C2=O)C[C@@](O)(C(=O)CO)C[C@@H]3O[C@H]1C[C@H](N)[C@H](O)[C@H](C)O1 [doxorubicin, Doxorubicin]
[2]
  inhibition at 1 µM: ≥ 70%

## C[C@H]1c2cccc(O)c2C(=O)C2=C(O)[C@]3(O)C(=O)C(C(N)=O)=C(O)[C@@H](N(C)C)[C@@H]3[C@@H](O)[C@@H]21 [doxycycline, Doxycycline]
[2]
  inhibition at 1 µM: ≥ 70%

## CCC(C)n1ncn(-c2ccc(N3CCN(c4ccc(OCC5COC(Cn6cncn6)(c6ccc(Cl)cc6Cl)O5)cc4)CC3)cc2)c1=O (centres unmarked) [itraconazole, Itraconazole]
[2]
  inhibition at 1 µM: ≥ 70%

## C[C@@H]1O[C@@H](O[C@@H]2C=C3CC[C@@H]4[C@H](CC[C@]5(C)[C@@H](c6ccc(=O)oc6)CC[C@]45O)[C@@]3(C)CC2)[C@H](O)[C@H](O)[C@H]1O [proscillaridin, Proscillaridin]
[2]
  inhibition at 1 µM: ≥ 70%
[6]; 1 µM, NHDF host cells
  Cytotoxicity for the host cells during the initial screening: signs of cytotoxicity for the host cells

## Ivermectin
T. gondii tachyzoites [3]; 1 µM
  Effect on T. gondii ultrastructure (TEM): induced the formation of myelin-like structures
[12]; Mouse, ref Table S3 supplementary ref 16
  Plasma concentration (Cmax): 642.3 ng/mL
[12]; read-out: Plasma concentration (Cmax), Mouse/Mice, ref Table S3 supplementary refs 16, 27
  Cmax: 734 nM
T. gondii tachyzoites [5]; 1 µM
  Effect on tachyzoite cell division (fluorescence microscopy): significant cell division arrestment
[8]; [22]
  Plasma concentration (Cmax): 260.5 ng/mL
[8]; [23]
  Cmax: 298 nM
